Measurements reported in patent US11584759B2, “Macrocyclic kinase inhibitor” (HITGEN INC., priority 2018, dated 2023).
pIC50: −log10 of the molar value.

Experiments:
[1] = tested on: Ba/F3 ETV6-NTRK3-G623R cell line; assay: Cell experiment, CellTiter-Glo viability, Ba/F3 ETV6-NTRK3-G623R; type: cell-based; conditions: Mus musculus, BaF3, 72 hours, CTG
Experimental: (§1) Cell culture and seeding: (1) cells in logarithmic growth phase were harvested and counted using a […]. The cell viability was detected by trypan blue exclusion method to ensure that the cell viability was above 90%. (2) The cell concentration was adjusted; and 90 μl of cell suspension was added to the 96-well plate.
(§2) 10 μl of drug solution was added to each well in a 96-well plate inoculated with cells, triplicate per concentration.
(§3) End-point for reading: (1) The CTG reagent was thawed and the cell plate was equilibrated to room temperature for 30 minutes. (2) Equal volume of CTG solution was added to each well. (3) The plated was shaken on an orbital shaker for 5 minutes to lyse the cells. (4) The cell plate was placed at room temperature for 20 minutes to stabilize the cold light signal. (5) The cold light value was read.
(§4) GraphPad Prism 7.0 software was used to analyze the data, and nonlinear S-curve regression was fitted the data to get the dose-effect curve, and the IC50 value was calculated therefrom. Cell survival (%)=(Lumtest drug−Lumculture control)/(Lumcell control−Lumculture control)×100%.

[2] = tested on: Ba/F3 LMNA-NTRK1-G595R cell line; assay: Cell experiment, CellTiter-Glo viability, Ba/F3 LMNA-NTRK1-G595R; type: cell-based; conditions: Mus musculus, BaF3, 72 hours, CTG
Experimental: as §1, §2, §3, §4

[3] = tested on: Ba/F3 LMNA-NTRK1-F589L cell line; assay: Cell experiment, CellTiter-Glo viability, Ba/F3 LMNA-NTRK1-F589L; type: cell-based; conditions: Mus musculus, BaF3, 72 hours, CTG
Experimental: as §1, §2, §3, §4

TRKA Protein (wild type) = molecular target: T1, TRKA Protein (wild type) (Homo sapiens, UniProt P04629); assay: Detection of TRK inhibitory activity (ADP-Glo kinase assay), TRKA wild type; type: biochemical; conditions: 35 min at room temperature
T1 construct: purchased abcam ab60887
T1 sequence (P04629 33-796): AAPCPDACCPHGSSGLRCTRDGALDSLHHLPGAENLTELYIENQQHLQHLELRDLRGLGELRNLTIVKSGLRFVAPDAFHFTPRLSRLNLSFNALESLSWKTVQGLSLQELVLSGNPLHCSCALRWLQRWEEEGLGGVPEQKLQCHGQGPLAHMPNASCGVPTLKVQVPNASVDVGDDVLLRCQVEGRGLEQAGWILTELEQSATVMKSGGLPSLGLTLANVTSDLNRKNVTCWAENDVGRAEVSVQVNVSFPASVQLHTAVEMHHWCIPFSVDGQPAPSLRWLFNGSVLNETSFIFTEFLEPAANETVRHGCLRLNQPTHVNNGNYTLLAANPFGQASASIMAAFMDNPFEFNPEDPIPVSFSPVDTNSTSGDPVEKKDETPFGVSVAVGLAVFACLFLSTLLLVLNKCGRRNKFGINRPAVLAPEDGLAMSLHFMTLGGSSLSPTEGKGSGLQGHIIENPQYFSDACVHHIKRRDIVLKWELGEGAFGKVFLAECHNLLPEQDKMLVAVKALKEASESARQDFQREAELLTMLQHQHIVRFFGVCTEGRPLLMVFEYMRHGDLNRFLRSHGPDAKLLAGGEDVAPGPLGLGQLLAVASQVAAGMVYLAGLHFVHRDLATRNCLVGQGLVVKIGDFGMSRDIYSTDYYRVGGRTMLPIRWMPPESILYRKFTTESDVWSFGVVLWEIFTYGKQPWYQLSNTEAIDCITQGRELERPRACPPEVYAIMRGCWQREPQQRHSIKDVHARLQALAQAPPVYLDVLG
Experimental: (§5) An enzyme reaction buffer was prepared containing 25 mM MOPS, 5 mM MgCl2, 500 μM DTT and 0.005% Triton, and then adjusted to pH 7.5.
(§6) The test compound was diluted with DMSO to 200 times of the desired final concentration, and mixed evenly, then 3 μL of the solution was pipetted to 117 μL of enzyme reaction buffer and mixed thoroughly. Then, 3 μL of the enzyme reaction buffer containing the test compound was pipetted to a 96-well PCR plate. The positive and negative control wells were filled with 3 μL of enzyme reaction buffer containing 2.5% DMSO, respectively. TRK protein was diluted to 0.4 ng/μL with the enzyme reaction buffer, and 6 μL of diluted TRK protein was added to each well except for the well for the blank control group, in which 6 μL of the enzyme reaction buffer was added. The reaction plate was centrifuged at 1000 rpm/min for 1 minute, and the compound and TRK were pre-incubated at room temperature for 10 minutes. A mixed solution with ATP at a concentration of 160 μM and substrate at a concentration of 1 μM was prepared with the enzyme reaction buffer, and 6 μL of the mixed solution was added to each reaction well. The reaction plate was centrifuged at 1000 rpm/min for 1 minute, and incubated at room temperature for 35 minutes. After the enzyme reaction was completed, 15 μL of ADP-Glo was added to each reaction well. The reaction plate was centrifuged at 1000 rpm/min for 1 minute, and incubated at room temperature for 40 minutes. Then 15 μL of the reaction solution from each well was transferred to a 384-well plate, and then 15 μL of detection substrate was added to each corresponding well of the 384-well plate. The 384-well plate was centrifuged at 1000 rpm/min for 1 minute, and incubated at room temperature for 40 minutes. After the reaction, a microplate reader was used to read the cold luminescence signal value in the 384-well plate.
(§7) The residual viability percentage of each concentration was calculated with the following formula: Residual viability (%)=100*(Lumincompond−Luminblank control)/(Luminpostive control−Luminblank control)
(§8) Then, GraphPad 5.0 was fitted to the effect curve to calculate the IC50 value.

[4] = tested on: BA/F3 ETV6-NTRK3 G623R cells; assay: Drug Efficacy Test 2: tumor growth in Balb/c Nude mice; type: in vivo, mouse; conditions: subcutaneous BA/F3 ETV6-NTRK3 G623R tumors, start at about 100 mm^3, FIG. 2
Experimental: BA/F3 ETV6-NTRK3 G623R cells are polyclonal stable transfected cell lines constructed based on TRKA mutation by our laboratory. Balb/c Nude mice, female, 6-8 weeks old, weighing 18-22 grams, were purchased from Chengdu Dashuo Experimental Animal Co., Ltd.
(§9) BA/F3 ETV6-NTRK3 G623R cells in logarithmic growth phase were collected, counted and adjusted to a suitable cell density. 0.1 mL cell suspension (2×10^6 cells) was inoculated subcutaneously into the right back of each mouse. When the average tumor volume reached about 100 mm^3, mice were randomly divided into groups (m=5) for administrating the compound of Example 1 in solvent PEG400:HPBCD (20%, W/V) (3:1).
(§10) At the end of the experiment, all surviving experimental animals were sacrificed.
(§11) Tumor volume was calculated using formula: V=0.5 (a×b^2), wherein a and b represent the long and short diameters of the tumor, respectively.
GraphPadPrism6.0 was used for graph analysis.

NIH-3T3ΔTRKA G595R cells = assay: Drug Efficacy Test 1: tumor growth in Balb/c Nude mice; type: in vivo, mouse; conditions: subcutaneous NIH-3T3ΔTRKA G595R tumors, start at about 100 mm^3, FIG. 1
Experimental: NIH-3T3 ATRKA G595R cells are polyclonal stable transfected cell lines constructed based on TRKA mutation by our laboratory. Balb/c Nude mice, female, 6-8 weeks old, weighing 18-22 grams, were purchased from Chengdu Dashuo Experimental Animal Co., Ltd.
NIH-3T3 ATRKA G595R cells in the logarithmic growth phase were collected, counted and adjusted to a suitable cell density. 0.1 mL cell suspension (2×10^6 cells) was inoculated subcutaneously into the right back of each mouse. When the average tumor volume reached about 100 mm^3, mice were randomly divided into groups (m=6) for administrating the compound of Example 1 in solvent PEG400:HPBCD (20%, W/V) (3:1).
as §10, §11
(§12) Graph Pad Prism 6.0 was used for graph analysis.

[5] = tested on: BA/F3 ETV6-NTRK3 G623R cells; assay: Drug Efficacy Test 3: tumor growth in SCID mice; type: in vivo, mouse; conditions: subcutaneous BA/F3 ETV6-NTRK3 G623R tumors, start at about 300 mm^3, FIG. 3
Experimental: BA/F3 ETV6-NTRK3 G623R cells are polyclonal stable transfected cell lines constructed based on TRKA mutation by our laboratory. SCID mice, female, 6-8 weeks old, weighing 18-22 grams, were purchased from Chengdu Dashuo Experimental Animal Co., Ltd.
as §9, with “300” for “100”
as §10, §11, §12

TRKA (G667C) = TRKA (G667C) (Homo sapiens, UniProt P04629, G667C); assay: Detection of TRK inhibitory activity (ADP-Glo kinase assay), TRKA (G667C); type: biochemical
Sequence of TRKA (G667C) (P04629 33-796 G667C): as the sequence (P04629 33-796) above, with G635C counted along it
Experimental: as §5, §6, §7, §8

Structure (SMILES)	pIC50 [1]	IC90 [1]	pIC50 [2]	IC90 [2]	pIC50 [3]	IC90 [3]	pIC50 (TRKA Protein (wild type))	Inhibition of tumor growth (tumor volume) [4]	Inhibition of tumor growth (tumor volume) (NIH-3T3ΔTRKA G595R cells)	Inhibition of tumor growth (tumor volume) [5]	pIC50 (TRKA (G667C))
CN1CCN(c2ccc(C(=O)Nc3n[nH]c4ccc(Cc5cc(F)cc(F)c5)cc34)c(NC3CCOCC3)c2)CC1 [RXDX-101, reference compound]	6.33	843 nM	5.76	6120 nM	> 9.00	1.4 nM	–	–	–	–	–
C[C@@H]1CCOc2ccc(F)cc2[C@H]2CCCN2c2ccc3ncc(C#N)c(c3n2)N1 [Example 1, (6R,16R)-9-fluoro-16-methyl-3-oxa-2,17,21,25-tetraazapentacyclo [16.6.2.0^2,^6.0^7,^12.0^22,^26]hexacosane-1(25),7,9,11,18(26),19,21,23-octane-19-nitrile]	7.76	42.3 nM	8.60	83.2 nM	8.42	17.1 nM	> 7.30	inhibits the growth	inhibits the growth	inhibits the growth	> 7.30
